Test results: patent US20250115598A1 (Anaxis Pharma Pty Ltd, priority 2021, published 2025)
pKd: −log10 of the molar value.

Key:
human RIPK3 = human RIPK3 (Homo sapiens (Human), UniProt Q9Y572); experiment: KINOMEscan binding assay, human RIPK3; conditions: Table 21
Outline: (§1)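 KINOMEscan competition binding using kinase-tagged T7 phage or HEK-293-produced DNA-tagged protein captured on ligand beads, with eluted protein quantified by qPCR. Compounds were run as an 11-point 3-fold series, top 30,000 nM, in 1% DMSO. Kd was fitted with the Hill equation, slope fixed at −1.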

human RIPK1 = human RIPK1 (Homo sapiens (Human), UniProt Q13546); experiment: KINOMEscan binding assay, human RIPK1; conditions: Table 21
human RIPK1, sequence (Q13546 whole entry): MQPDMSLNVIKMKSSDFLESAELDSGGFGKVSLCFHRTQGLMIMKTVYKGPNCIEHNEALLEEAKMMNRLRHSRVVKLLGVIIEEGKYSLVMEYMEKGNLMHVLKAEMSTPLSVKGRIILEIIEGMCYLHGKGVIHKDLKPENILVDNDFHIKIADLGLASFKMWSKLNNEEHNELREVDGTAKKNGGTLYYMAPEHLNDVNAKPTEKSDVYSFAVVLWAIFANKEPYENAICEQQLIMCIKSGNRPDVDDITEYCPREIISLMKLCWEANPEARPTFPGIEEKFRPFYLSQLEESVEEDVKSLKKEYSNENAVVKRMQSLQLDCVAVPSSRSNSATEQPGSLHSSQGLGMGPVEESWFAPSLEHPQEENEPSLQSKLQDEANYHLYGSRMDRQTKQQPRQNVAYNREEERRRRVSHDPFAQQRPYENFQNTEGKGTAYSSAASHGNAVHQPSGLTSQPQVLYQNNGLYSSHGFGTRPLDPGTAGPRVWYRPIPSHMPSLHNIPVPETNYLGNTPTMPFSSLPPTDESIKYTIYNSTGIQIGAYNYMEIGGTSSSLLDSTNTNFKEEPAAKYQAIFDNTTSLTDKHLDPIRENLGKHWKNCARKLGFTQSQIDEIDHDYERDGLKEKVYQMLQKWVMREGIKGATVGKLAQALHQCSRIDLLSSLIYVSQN
Outline: as §1

human MLKL (full length) = human MLKL (full length) (Homo sapiens (Human), UniProt Q8NB16); experiment: KINOMEscan binding assay, human MLKL (full length); conditions: KINOMEscan, Table 21; read-out: Human MLKL (full-length) (KD)
human MLKL (full length), sequence (Q8NB16 whole entry): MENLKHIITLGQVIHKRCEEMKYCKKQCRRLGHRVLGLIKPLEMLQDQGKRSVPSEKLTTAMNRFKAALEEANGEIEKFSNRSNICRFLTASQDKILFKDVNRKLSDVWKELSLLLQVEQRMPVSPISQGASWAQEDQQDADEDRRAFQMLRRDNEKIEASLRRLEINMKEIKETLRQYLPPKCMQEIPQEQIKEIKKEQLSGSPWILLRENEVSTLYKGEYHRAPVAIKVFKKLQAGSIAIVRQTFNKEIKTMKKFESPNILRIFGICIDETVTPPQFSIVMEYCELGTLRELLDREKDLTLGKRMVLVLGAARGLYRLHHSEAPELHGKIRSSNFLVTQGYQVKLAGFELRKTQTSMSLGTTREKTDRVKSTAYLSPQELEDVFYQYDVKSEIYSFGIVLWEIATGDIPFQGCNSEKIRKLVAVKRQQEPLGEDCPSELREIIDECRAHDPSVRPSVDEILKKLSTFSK
Outline: as §1

human RIPK3, sequence (Q9Y572 whole entry): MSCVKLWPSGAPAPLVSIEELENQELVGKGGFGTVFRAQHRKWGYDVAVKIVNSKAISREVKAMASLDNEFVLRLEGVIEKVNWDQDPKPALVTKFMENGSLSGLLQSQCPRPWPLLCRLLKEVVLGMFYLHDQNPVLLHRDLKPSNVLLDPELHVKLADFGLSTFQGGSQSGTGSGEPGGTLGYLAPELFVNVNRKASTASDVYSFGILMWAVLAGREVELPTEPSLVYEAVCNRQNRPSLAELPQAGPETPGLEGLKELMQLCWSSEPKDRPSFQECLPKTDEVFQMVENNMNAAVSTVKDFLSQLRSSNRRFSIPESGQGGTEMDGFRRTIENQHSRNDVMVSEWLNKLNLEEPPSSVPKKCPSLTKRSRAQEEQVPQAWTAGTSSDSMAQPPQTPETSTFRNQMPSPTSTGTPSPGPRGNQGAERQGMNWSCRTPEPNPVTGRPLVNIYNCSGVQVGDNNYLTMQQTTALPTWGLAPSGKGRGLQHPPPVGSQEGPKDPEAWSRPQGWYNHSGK

Structure (SMILES) | pKd (human RIPK3) | pKd (human RIPK1) | pKd (human MLKL (full length))
C[C@H](Oc1cc(-c2nn(C)c3c(-c4cnn(C5(CC#N)COC5)c4)cnc(N)c23)ccc1NS(=O)(=O)C(F)F)c1ccc(F)cc1 [Compound 98, (S)-N-(4-(4-amino-7-(1-(3-(cyanomethyl)oxetan-3-yl)-1H-pyrazol-4-yl)-1-methyl-1H-pyrazolo[4,3-c]pyridin-3-yl)-2-(1-(4-fluorophenyl)ethoxy)phenyl)-1,1-difluoromethanesulfonamide] | < 5.00 | < 5.00 | > 9.00
C[C@H](Oc1cc(-c2coc3c(-c4cnn(CCO)c4)cnc(N)c23)ccc1NS(=O)(=O)C(F)F)c1ccc(F)cc1 [Compound 9, (S)-N-(4-(4-amino-7-(1-(2-hydroxyethyl)-1H-pyrazol-4-yl)furo[3,2-c]pyridin-3-yl)-2-(1-(4-fluoro-phenyl)eth-oxy)phenyl)-1,1-difluoromethane-sulfonamide] | < 5.00 | < 5.00 | > 9.00
C[C@H](Oc1cc(-c2nn(C)c3c(-c4cnn(C5CC6(CNC6)C5)c4)cnc(N)c23)ccc1NS(=O)(=O)C(F)F)c1ccc(F)cc1 [Compound 78, (S)-N-(4-(7-(1-(2-azaspiro[3.3]heptan-6-yl)-1H-pyrazol-4-yl)-4-amino-1-methyl-1H-pyrazolo[4,3-c]pyridin-3-yl)-2-(1-(4-fluorophenyl)ethoxy)phenyl)-1,1-difluoromethane-sulfonamide] | < 5.00 | < 5.00 | > 9.00
Nc1n[nH]c2nccc(-c3ccc(NS(=O)(=O)C(F)F)c(OCc4ccc(F)cc4)c3)c12 [Compound 66, N-(4-(3-Amino-1H-pyrazolo[3,4-b]pyridin-4-yl)-2-((4-fluorophenyl)methoxy)phenyl)-1,1-difluoromethanesulfonamide] | < 5.00 | < 5.00 | > 9.00
CC(C)n1nc(-c2ccc(NS(=O)(=O)C(F)F)c(O[C@@H](C)c3ccc(F)cc3)c2)c2c(N)ncc(-c3ccncc3)c21 [Compound 50, (S)-N-(4-(4-amino-1-isopropyl-7-(pyridin-4-yl)-1H-pyrazolo[4,3-c]pyridin-3-yl)-2-(1-(4-fluorophenyl)ethoxy)phenyl)-1,1-difluoromethane-sulfonamide] | < 5.00 | < 5.00 | > 9.00
C[C@H](Oc1cc(-c2nn(C)c3c(-c4ccncn4)cnc(N)c23)ccc1NS(=O)(=O)C(F)F)c1ccc(F)cc1 [Compound 40, (S)—N-(4-(4-amino-1-methyl-7-(pyrimidin-4-yl)-1H-pyrazolo[4,3-c]pyridin-3-yl)-2-(1-(4-fluorophenyl)ethoxy)phenyl)-1,1-difluoromethanesulfonamide] | < 5.00 | < 5.00 | > 9.00
Cc1ccc(-c2cnc(N)c3c(-c4ccc(NS(=O)(=O)C(F)F)c(O[C@@H](C)c5ccc(F)cc5)c4)nn(C)c23)cn1 [Compound 26, (S)-N-(4-(4-amino-1-methyl-7-(6-methylpyridin-3-yl)-1H-pyrazolo[4,3-c]pyridin-3-yl)-2-(1-(4-fluorophenyl)ethoxy)phenyl)-1,1-difluoromethanesulfonamide] | < 5.00 | < 5.00 | > 9.00
C[C@H](Oc1cc(-c2nn(C)c3c(-c4cccnc4)cnc(N)c23)ccc1NS(=O)(=O)C(F)F)c1ccc(F)cc1 [Compound 25, (S)-N-(4-(4-amino-1-methyl-7-(pyridin-3-yl)-1H-pyrazolo[4,3-c]pyridin-3-yl)-2-(1-(4-fluorophenyl)ethoxy)phenyl)-1,1-difluoromethanesulfonamide] | < 5.00 | < 5.00 | > 9.00
C[C@H](Oc1cc(-c2nn(C)c3c(-c4cnn(C5CCN(C)C5)c4)cnc(N)c23)ccc1NS(=O)(=O)C(F)F)c1ccc(F)cc1 (stereo partly drawn) [Compound 93, N-(4-(4-amino-1-methyl-7-(1-(1-methylpyrrolidin-3-yl)-1H-pyrazol-4-yl)-1H-pyrazolo[4,3-c]pyridin-3-yl)-2-((S)-1-(4-fluorophenyl)ethoxy)phenyl)-1,1-difluoromethanesulfonamide] | < 5.00 | < 5.00 | > 9.00
C[C@H](Oc1cc(-c2nn(C)c3c(-c4cnc(N5CCN(C)CC5)nc4)cnc(N)c23)ccc1NS(=O)(=O)C(F)F)c1ccc(F)cc1 [Compound 105, (S)-N-(4-(4-amino-1-methyl-7-(2-(4-methylpiperazin-1-yl)pyrimidin-5-yl)-1H-pyrazolo[4,3-c]pyridin-3-yl)-2-(1-(4-fluorophenyl)ethoxy)phenyl)-1,1-difluoromethanesulfonamide] | < 5.00 | < 5.00 | > 9.00
C[C@H](Oc1cc(-c2nn(C)c3c(C#CC4CCNCC4)cnc(N)c23)ccc1NS(=O)(=O)C(F)F)c1ccc(F)cc1 [Compound 79, (S)—N-(4-(4-amino-1-methyl-7-(piperidin-4-ylethynyl)-1H-pyrazolo[4,3-c]pyridin-3-yl)-2-(1-(4-fluorophenyl)ethoxy)phenyl)-1,1-difluoromethanesulfonamide] | < 5.00 | < 5.00 | > 9.00
C[C@H](Oc1cc(-c2cnn3c(-c4ccncc4)cnc(N)c23)ccc1NS(=O)(=O)C(F)F)c1ccc(F)cc1 [Compound 39, (S)-N-(4-(4-amino-7-(pyridin-4-yl)pyrazolo[1,5-a]pyrazin-3-yl)-2-(1-(4-fluoro-phenyl)ethoxy)phenyl)-1,1-difluoromethane-sulfonamide] | < 5.00 | < 5.00 | > 9.00
C[C@H](Oc1cc(-c2nn(C)c3c(-c4cnn(C5C[C@@H]6CN(C)C[C@@H]6C5)c4)cnc(N)c23)ccc1NS(=O)(=O)C(F)F)c1ccc(F)cc1 (stereo partly drawn) [Compound 164, N-(4-(4-amino-1-methyl-7-(1-((3aR,6aS)-2-methyloctahydrocyclo-penta[c]pyrrol-5-yl)-1H-pyrazol-4-yl)-1H-pyrazolo[4,3-c]pyridin-3-yl)-2-((S)-1-(4-fluorophenyl)eth-oxy)phenyl)-1,1-difluoromethane-sulfonamide] | < 5.00 | < 5.00 | > 9.00
COc1ccc(-c2cnc(N)c3c(-c4ccc(NS(=O)(=O)C(F)F)c(O[C@@H](C)c5ccc(F)cc5)c4)nn(C)c23)cn1 [Compound 28, (S)-N-(4-(4-amino-7-(6-methoxypyridin-3-yl)-1-methyl-1H-pyrazolo[4,3-c]pyridin-3-yl)-2-(1-(4-fluorophenyl)ethoxy)phenyl)-1,1-difluoromethanesulfonamide] | < 5.00 | < 5.00 | > 9.00
C[C@H](Oc1cc(-c2nn(C)c3c(-c4cnn(C5CCOCC5)c4)cnc(N)c23)ccc1NS(=O)(=O)C(F)F)c1cccc(Cl)c1 [Compound 122] | < 5.00 | < 5.00 | > 9.00
Cn1nc(-c2ccc(NS(=O)(=O)C(F)F)c(OCC3CCCCC3)c2)c2c(N)ncc(-c3cnn(C4CCOCC4)c3)c21 [Compound 150, N-(4-(4-amino-1-methyl-7-(1-(tetrahydro-2H-pyran-4-yl)-1H-pyrazol-4-yl)-1H-pyrazolo[4,3-c]pyridin-3-yl)-2-(cyclohexyl-methoxy)phenyl)-1,1-difluoromethane-sulfonamide] | < 5.00 | < 5.00 | > 9.00
CC(n1cc(-c2cnc(N)c3c(-c4ccc(NS(=O)(=O)C(F)F)c(O[C@@H](C)c5ccc(F)cc5)c4)nn(C)c23)cn1)C(F)(F)F (stereo partly drawn) [Compound 142, N-(4-(4-amino-1-methyl-7-(1-(1,1,1-trifluoropropan-2-yl)-1H-pyrazol-4-yl)-1H-pyrazolo[4,3-c]pyridin-3-yl)-2-((S)-1-(4-fluorophenyl)ethoxy)phenyl)-1,1-difluoromethanesulfonamide] | < 5.00 | < 5.00 | > 9.00
C[C@H](Oc1cc(-c2nn(C)c3c(-c4cnn(CCN(C)C)c4)cnc(N)c23)ccc1NS(=O)(=O)C(F)F)c1ccc(F)cc1 [Compound 100, (S)-N-(4-(4-amino-7-(1-(2-(dimethylamino)ethyl)-1H-pyrazol-4-yl)-1-methyl-1H-pyrazolo[4,3-c]pyridin-3-yl)-2-(1-(4-fluorophenyl)ethoxy)phenyl)-1,1-difluoromethanesulfonamide] | < 5.00 | < 5.00 | > 9.00
Cn1cc(-c2cnc(N)c3c(-c4ccc(NS(=O)(=O)C(F)F)c(OCc5ccc(F)cc5)c4)nn(C)c23)cn1 [Compound 16, N-(4-(4-amino-1-methyl-7-(1-methyl-1H-pyrazol-4-yl)-1H-pyrazolo[4,3-c]pyridin-3-yl)-2-((4-fluoro-benzyl)oxy)phenyl)-1,1-difluoromethane-sulfonamide] | < 5.00 | < 5.00 | > 9.00
C[C@H](Oc1cc(-c2nn(C)c3c(-c4cnn(C5(CN)CC5)c4)cnc(N)c23)ccc1NS(=O)(=O)C(F)F)c1ccc(F)cc1 [Compound 89, (S)—N-(4-(4-amino-7-(1-(1-(aminomethyl)cyclopropyl)-1H-pyrazol-4-yl)-1-methyl-1H-pyrazolo[4,3-c]pyridin-3-yl)-2-(1-(4-fluorophenyl)ethoxy)phenyl)-1,1-difluoromethanesulfonamide] | < 5.00 | < 5.00 | > 9.00
C[C@H](Oc1cc(-c2cnn3c(-c4cnn(C)c4)cnc(N)c23)ccc1NS(=O)(=O)C(F)F)c1ccc(F)cc1 [Compound 35, (S)-N-(4-(4-amino-7-(1-methyl-1H-pyrazol-4-yl)pyrazolo[1,5-a]pyrazin-3-yl)-2-(1-(4-fluorophenyl)ethoxy)phenyl)-1,1-difluoromethane-sulfonamide] | < 5.00 | < 5.00 | > 9.00
Cc1cc(-c2cnc(N)c3c(-c4ccc(NS(=O)(=O)C(F)F)c(O[C@@H](C)c5ccc(F)cc5)c4)nn(C)c23)ccn1 [Compound 24, (S)-N-(4-(4-amino-1-methyl-7-(2-methylpyridin-4-yl)-1H-pyrazolo[4,3-c]pyridin-3-yl)-2-(1-(4-fluorophenyl)ethoxy)phenyl)-1,1-difluoromethanesulfonamide] | < 5.00 | < 5.00 | > 9.00
